In patent US10098883B2, “(Aza)pyridopyrazolopyrimidinones and indazolopyrimidinones and their use” (BAYER PHARMA AKTIENGESELLSCHAFT, priority 2013, dated 2018):
Structures can show the parent of a compound that is named as a salt.

System: clot lysis (fibrinolysis) in human citrated plasma, tPA-induced
Test: Plasma-based clot lysis assay (5%)
Type: biochemical
Settings: diluted human citrated plasma (platelet-poor, 5%), fibrinogen 3 μM, CaCl2 10 mM, tPA 0.2 nM, 37° C., OD 405 nm
Procedure: B-2. Plasma-based Clot Lysis Assay (5%)
The clot-lysis test system configures the kinetics of clot formation and degradation in vitro and allows quantifying modulation of the process by selected test compounds.
The test compounds were dissolved in 1% acetic acid and further complemented with an equal volume of DMSO. The resulting stock solutions were serially diluted in 0.5% acetic acid/50% DMSO. 1 μL aliquots of these solutions were placed into 384 well microplates (Greiner, black, transparent bottom), followed by 30 μL of diluted human citrated plasma (platelet-poor, final concentration: 5%; supplemented with fibrinogen, final concentration: 3 μM; dilution buffer: 20 mM HEPES, 150 mM NaCl, 0.01% Brij (pH 7)). The reactions were started by addition of […] of CaCl2 (final concentration: 10 mM), and tPA (tissue plasminogen activator, final concentration: 0.2 nM) in dilution buffer, followed by an additional volume of 20 μL dilution buffer for improved mixing. The reactions were incubated at 37° C. Clot formation and degradation was monitored spectrophotometrically by kinetic optical density measurements at 405 nm. IC50 values were determined by comparing the resulting time courses with the time course of a blank control reaction.

Compound | IC50 [nM]
O=c1cc(C2CCNCC2)n2nc3cccc(-c4c(F)cccc4F)c3c2[nH]1 [Example 78, 10-(2,6-Difluorophenyl)-4-(piperidin-4-yl)pyrimido[1,2-b]indazol-2(1H)-one hydrochloride] | 15
O=c1cc(C2CCNCC2)n2nc3cccc(-c4ccccc4OC(F)(F)F)c3c2[nH]1 [Example 80, 4-(Piperidin-4-yl)-10-[2-(trifluoromethoxy)phenyl]pyrimido[1,2-b]indazol-2(1H)-on hydrochloride] | 18
O=c1cc(C2CCNCC2)n2nc3cccc(-c4ccccn4)c3c2[nH]1 [Example 82, 4-(Piperidin-4-yl)-10-(pyridin-2-yl)pyrimido[1,2-b]indazol-2(1H)-one hydrochloride] | 20
O=c1cc(C2CCNCC2)n2nc3cccc(-c4nccs4)c3c2[nH]1 [Example 83, 4-(Piperidin-4-yl)-10-(1,3-thiazol-2-yl)pyrimido[1,2-b]indazol-2(1H)-one hydrochloride] | 41
O=c1cc(C2CCNCC2)n2nc3cccc(-c4ccsc4)c3c2[nH]1 [Example 84, 4-(Piperidin-4-yl)-10-(3-thienyl)pyrimido[1,2-b]indazol-2(1H)-one hydrochloride] | 23
O=c1cc(C2CCNCC2)n2nc3cccc(-c4cccs4)c3c2[nH]1 [Example 88, 4-(Piperidin-4-yl)-10-(2-thienyl)pyrimido[1,2-b]indazol-2(1H)-one hydrochloride] | 26
O=c1cc(C2CCNCC2)n2nc3cccc(-n4cncn4)c3c2[nH]1 [Example 91, 4-(Piperidin-4-yl)-10-(1H-1,2,4-triazol-1-yl)pyrimido[1,2-b]indazol-2(1H)-one hydrochloride] | 27
O=c1cc(C2CCNCC2)n2nc3ccc(F)c(-c4ccccc4F)c3c2[nH]1 [Example 92, 9-Fluoro-10-(2-fluorophenyl)-4-(piperidin-4-yl)pyrimido[1,2-b]indazol-2(1H)-one hydrochloride] | 27
CCOc1ccccc1-c1cccc2nn3c(C4CCNCC4)cc(=O)[nH]c3c12 [Example 93, 10-(2-Ethoxyphenyl)-4-(piperidin-4-yl)pyrimido[1,2-b]indazol-2(1H)-one hydrochloride] | 28
CC(C)Oc1ccccc1-c1cccc2nn3c(C4CCNCC4)cc(=O)[nH]c3c12 [Example 94, 10-(2-Isopropoxyphenyl)-4-(piperidin-4-yl)pyrimido[1,2-b]indazol-2(1H)-one hydrochloride] | 35
O=c1cc(C2CCNCC2)n2nc3cccc(-c4ccccc4F)c3c2[nH]1 [Example 95, 10-(2-Fluorophenyl)-4-(piperidin-4-yl)pyrimido[1,2-b]indazol-2(1H)-one] | 18
O=c1cc(C2CCNCC2)n2nc3cccc(-n4cccn4)c3c2[nH]1 [Example 96, 4-(Piperidin-4-yl)-10-(1H-pyrazol-1-yl)pyrimido[1,2-b]indazol-2(1H)-one hydrochloride] | 26
COc1cccc(F)c1-c1cccc2nn3c(C4CCNCC4)cc(=O)[nH]c3c12 [Example 97, 10-(2-Fluoro-6-methoxyphenyl)-4-(piperidin-4-yl)pyrimido[1,2-b]indazol-2(1H)-one hydrochloride] | 30
O=c1cc(C2CCNCC2)n2nc3cccc(-n4nccn4)c3c2[nH]1 [Example 98, 4-(Piperidin-4-yl)-10-(2H-1,2,3-triazol-2-yl)pyrimido[1,2-b]indazol-2(1H)-one hydrochloride] | 27
O=c1cc(C2CCNCC2)n2nc3cccc(-n4ccnn4)c3c2[nH]1 [Example 99, 4-(Piperidin-4-yl)-10-(1H-1,2,3-triazol-1-yl)pyrimido[1,2-b]indazol-2(1H)-one hydrochloride] | 29
O=c1cc(C2CCNCC2)n2nc3cccc(-c4cnc[nH]4)c3c2[nH]1 [Example 103, 10-(1H-imidazol-5-yl)-4-(piperidin-4-yl)pyrimido[1,2-b]indazol-2(1H)-one hydrochloride] | 110
O=c1cc(C2CCNCC2)n2nc3cccc(-c4ccc[nH]4)c3c2[nH]1 [Example 104, 4-(piperidin-4-yl)-10-(1H-pyrrol-2-yl)pyrimido[1,2-b]indazol-2(1H)-one hydrochloride] | 35

Now from value to molecule:

IC50 [nM] | Compound
14 | CCC(C)c1cccc2nn3c(C4CCNCC4)cc(=O)[nH]c3c12 (stereo not shown) [Example 72, 10-sec-Butyl-4-(piperidin-4-yl)pyrimido[1,2-b]indazol-2(1H)-one hydrochloride]
23 | CC(C)Cc1cccc2nn3c(C4CCNCC4)cc(=O)[nH]c3c12 [Example 73, 10-Isobutyl-4-(piperidin-4-yl)pyrimido[1,2-b]indazol-2(1H)-one hydrochloride]
15 | Cc1ccc2nn3c(C4CCNCC4)cc(=O)[nH]c3c2c1Br [Example 74, 10-Bromo-9-methyl-4-(piperidin-4-yl)pyrimido[1,2-b]indazol-2(1H)-one hydrochloride]
16 | Cc1ccc(Br)c2c1nn1c(C3CCNCC3)cc(=O)[nH]c21 [Example 75, 10-Bromo-7-methyl-4-(piperidin-4-yl)pyrimido[1,2-b]indazol-2(1H)-one hydrochloride]
15 | CC(C)Oc1cccc2nn3c(C4CCNCC4)cc(=O)[nH]c3c12 [Example 76, 10-Isopropoxy-4-(piperidin-4-yl)pyrimido[1,2-b]indazol-2(1H)-one hydrochloride]
11 | O=c1cc(C2CCNCC2)n2nc3ccc(F)c(-c4ccccc4)c3c2[nH]1 [Example 77, 9-Fluoro-10-phenyl-4-(piperidin-4-yl)pyrimido[1,2-b]indazol-2(1H)-one hydrochloride]
11 | Cc1cc(Cl)c2c(c1)nn1c(C3CCNCC3)cc(=O)[nH]c21 [Example 79, 10-Chloro-8-methyl-4-(piperidin-4-yl)pyrimido[1,2-b]indazol-2(1H)-one hydrochloride]
16 | O=c1cc(C2CCNCC2)n2nc3cc(F)cc(Br)c3c2[nH]1 [Example 81, 10-Bromo-8-fluoro-4-(piperidin-4-yl)pyrimido[1,2-b]indazol-2(1H)-one hydrochloride]
18 | Cc1ccccc1-c1cccc2nn3c(C4CCNCC4)cc(=O)[nH]c3c12 [Example 85, 10-(2-Methylphenyl)-4-(piperidin-4-yl)pyrimido[1,2-b]indazol-2(1H)-one hydrochloride]
15 | Cn1nccc1-c1cccc2nn3c(C4CCNCC4)cc(=O)[nH]c3c12 [Example 86, 10-(1-Methyl-1H-pyrazol-5-yl)-4-(piperidin-4-yl)pyrimido[1,2-b]indazol-2(1H)-one hydrochloride]
25 | Cn1cc(-c2cccc3nn4c(C5CCNCC5)cc(=O)[nH]c4c23)cn1 [Example 87, 10-(1-Methyl-1H-pyrazol-4-yl)-4-(piperidin-4-yl)pyrimido[1,2-b]indazol-2(1H)-one hydrochloride]
36 | Cc1cc(Br)c2c(c1)nn1c(C3CCNCC3)cc(=O)[nH]c21 [Example 89, 10-Bromo-8-methyl-4-(piperidin-4-yl)pyrimido[1,2-b]indazol-2(1H)-one hydrochloride]
24 | O=c1cc(C2CCNCC2)n2nc3ccc(F)c(Cl)c3c2[nH]1 [Example 90, 10-Chloro-9-fluoro-4-(piperidin-4-yl)pyrimido[1,2-b]indazol-2(1H)-one hydrochloride]
30 | Cc1ccc(Cl)c2c1nn1c(C3CCNCC3)cc(=O)[nH]c21 [Example 100, 10-Chloro-7-methyl-4-(piperidin-4-yl)pyrimido[1,2-b]indazol-2(1H)-one hydrochloride]
74 | O=c1cc(C2CCNCC2)n2nc3cccc(O)c3c2[nH]1 [Example 105, 10-hydroxy-4-(piperidin-4-yl)pyrimido[1,2-b]indazol-2(1H)-one hydrobromide]
420 | O=C(O)c1cccc2nn3c(C4CCNCC4)cc(=O)[nH]c3c12 [Example 106, 2-oxo-4-(piperidin-4-yl)-1,2-dihydropyrimido[1,2-b]indazole-10-carboxylic acid hydrochloride]
34 | O=c1cc(C2CCNCC2)n2nc3cccc(OCC(F)(F)F)c3c2[nH]1 [Example 107, 4-(piperidin-4-yl)-10-(2,2,2-trifluoroethoxy)pyrimido[1,2-b]indazol-2(1H)-one hydrochloride]
